Experiments:
menin protein = molecular target: T1, menin protein (Homo sapiens, UniProt O00255); experiment: Fluorescence polarization (FP) competitive binding assay, menin binding affinity; conditions: FP competition with FAM-MM2 probe 2 nM, menin 4 nM, 30 minutes room temperature
T1 sequence (O00255 1-610): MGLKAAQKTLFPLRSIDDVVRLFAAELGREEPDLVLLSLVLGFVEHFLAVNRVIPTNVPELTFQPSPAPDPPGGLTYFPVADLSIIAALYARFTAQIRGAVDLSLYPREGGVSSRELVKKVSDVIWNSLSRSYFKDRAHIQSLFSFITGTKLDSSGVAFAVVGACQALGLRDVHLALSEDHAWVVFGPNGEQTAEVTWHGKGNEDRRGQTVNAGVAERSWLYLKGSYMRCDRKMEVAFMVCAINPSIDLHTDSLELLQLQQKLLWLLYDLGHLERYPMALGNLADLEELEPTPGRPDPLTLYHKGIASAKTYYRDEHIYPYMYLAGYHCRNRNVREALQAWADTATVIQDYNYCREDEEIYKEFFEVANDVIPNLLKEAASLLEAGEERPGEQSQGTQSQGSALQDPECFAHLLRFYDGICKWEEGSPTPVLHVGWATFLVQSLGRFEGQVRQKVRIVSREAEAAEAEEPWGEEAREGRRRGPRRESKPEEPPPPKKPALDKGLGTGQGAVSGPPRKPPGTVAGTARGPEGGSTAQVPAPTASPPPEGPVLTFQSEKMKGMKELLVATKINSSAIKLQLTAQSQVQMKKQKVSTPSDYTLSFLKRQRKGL
Method: A fluorescence polarization (FP) competitive binding assay was used to determine the binding affinities of representative menin inhibitors. A FAM labeled fluorescent probe was designed and synthesized based on a MLL1 peptide (FAM-MM2). Equilibrium dissociation constant (Kd) value of FAM-MM2 to menin protein was determined from protein saturation experiments by monitoring the total fluorescence polarization of mixtures composed with the fluorescent probe at a fixed concentration and the protein with increasing concentrations up to full saturation. Serial dilutions of the protein were mixed with FAM-MM2 to a final volume of 200 μl in the assay buffer (PBS with 0.02% Bovine γ-Globulin and 4% DMSO. 0.01% Triton X-100 was added right before assays). Final FAM-MM2 concentration was 2 nM. Plates were incubated at room temperature for 30 minutes with gentle shaking to assure equilibrium. FP values in millipolarization units (mP) were measured using the Infinite M-1000 plate reader (Tecan U.S., Research Triangle Park, N.C.) in Microfluor 1 96-well, black, v-bottom plates (Thermo Scientific, Waltham, Mass.) at an excitation wavelength of 485 nm and an emission wavelength of 530 nm.
The IC50 of representative Compounds of the Disclosure, see Table 3, were determined in a competitive binding experiment. Mixtures of 5 μl of the tested compounds in DMSO and 195 μl of preincubated protein/probe complex solution in the assay buffer were added into assay plates which were incubated at room temperature for 30 minutes with gentle shaking. Final concentration of the menin protein was 4 nM, and final probe concentration is 2 nM. Negative controls containing protein/probe complex only (equivalent to 0% inhibition), and positive controls containing only free probes (equivalent to 100% inhibition), were included in each assay plate. FP values were measured as described above. IC50 values were determined by nonlinear regression fitting of the competition curves.

MV4-11 = experiment: 7-day proliferation assay (WST-8), cell growth inhibition; assay type: cell-based; conditions: Homo sapiens, MV4-11, 168 h, MV4-11 cells, 7 days
Method: The effect of representative Compounds of the Disclosure on cell viability was determined in a 7-day proliferation assay. Cells were maintained in the appropriate culture medium with 10% FBS at 37° C. and an atmosphere of 5% CO2.
Cells were seeded in 96-well flat bottom (Corning COSTAR, Corning, NY, cat#3595) at a density of 2,000-3,000 cells/well in 100 μl of culture medium. Compounds were serially diluted in the appropriate medium, and […] the diluted compounds were added to the appropriate wells of the cell plate. After the addition of compounds, the cells were incubated at 37° C. in an atmosphere of 5% CO2 for 7 days. Cell viability was determined using the WST (2-(2-methoxy-4-nitrophenyl)-3-(4-nitrophenyl)-5-(2,4-disulfophenyl)-2H-tetrazolium, monosodium salt) Cell Counting-8 Kit (Dojindo Molecular Technologies, Inc., Rockville, Md.) according to the manufacturers' instructions.
WST-8 reagent was added to each well at a final concentration of 10% (v/v), and then the plates were incubated at 37° C. for 1-2 hours for color development. The absorbance was measured at 450 nm using a SPECTRAmax PLUS plate reader (Molecular Devices, Sunnyvale, Calif.). The readings were normalized to the DMSO-treated cells and the half maximal inhibitory concentration (IC50) was calculated by nonlinear regression (four parameters sigmoid fitted with variable slope, least squares fit, and no constraint) analysis using the GraphPad Prism 5 software (GraphPad Software, La Jolla, Calif.).

Row | IC50 (menin protein) | IC50 (MV4-11) | Compound
1 | 4 nM |  | C=CC(=O)N1CCCC[C@H](S(=O)(=O)c2ccc(N3CC(CN4CCC([C@@](CN5CCC5)(c5cccc(F)c5)[C@H]5CCC[C@@H]5NC(=O)OC)CC4)(OC)C3)cc2)C1 [compound 234]
2 | 4 nM |  | C=CC(=O)N1CCCC[C@H](S(=O)(=O)c2ccc(N3CC(CN4CCC([C@@](CN5CCC5)(c5cccc(F)c5)[C@H]5CCC[C@@H]5NC(=O)OC)CC4)(OC)C3)c(F)c2)C1 [compound 235]
3 | 4 nM |  | C=CC(=O)N1CCCC[C@H](S(=O)(=O)c2ccc(N3CC(F)(CN4CCC([C@@](CN5CCC5)(c5cccc(F)c5)[C@H]5CCC[C@@H]5NC(=O)OC)CC4)C3)cc2)C1 [compound 236]
4 | 4 nM |  | C=CC(=O)N1CCCC[C@H](S(=O)(=O)c2ccc(N3CC(F)(CN4CCC([C@@](CN5CCC5)(c5cccc(F)c5)[C@H]5CCC[C@@H]5NC(=O)OC)CC4)C3)c(F)c2)C1 [compound 237]
5 | 7 nM |  | C=CC(=O)N1CCN(C(C)=O)[C@H](CS(=O)(=O)c2ccc(N3CC(CN4CCC([C@@](CN5CCC5)(c5cccc(F)c5)[C@H]5CCC[C@@H]5NC(=O)OC)CC4)(OC)C3)cc2)C1 [compound 238]
6 | 6 nM |  | C=CC(=O)N1CCN(C(C)=O)[C@@H](CS(=O)(=O)c2ccc(N3CC(CN4CCC([C@@](CN5CCC5)(c5cccc(F)c5)[C@H]5CCC[C@@H]5NC(=O)OC)CC4)(OC)C3)cc2)C1 [compound 239]
7 | 10 nM |  | C=CC(=O)N1CCN(C(C)=O)CC(S(=O)(=O)c2ccc(N3CC(CN4CCC([C@@](CN5CCC5)(c5cccc(F)c5)[C@H]5CCC[C@@H]5NC(=O)OC)CC4)(OC)C3)cc2)C1 (stereo partly drawn) [compound 241]
8 | 10 nM |  | C=CC(=O)N1CCN(C(=O)OC)CC(S(=O)(=O)c2ccc(N3CC(CN4CCC([C@@](CN5CCC5)(c5cccc(F)c5)[C@H]5CCC[C@@H]5NC(=O)OC)CC4)(OC)C3)cc2)C1 (stereo partly drawn) [compound 242]

Continued, compound first:

Row | Compound | IC50 (menin protein) | IC50 (MV4-11)
9 | C=C(CN1CCOCC1)C(=O)N1CC(S(=O)(=O)c2ccc(N3CC(CN4CCC([C@@](CN5CCC5)(c5cccc(F)c5)[C@H]5CCC[C@@H]5NC(=O)OC)CC4)C3)cc2)C1 [Cpd. No. 9, methyl ((1S,2R)-2-((S)-2-(azetidin-1-yl)-1-(3-fluorophenyl)-1-(1-((1-(4-((1-(2-(morpholinomethyl)acryloyl)azetidin-3-yl)sulfonyl)phenyl)azetidin-3-yl)methyl)piperidin-4-yl)ethyl)cyclopentyl)carbamate] | 2 nM | < 10 nM
10 | C=C(CN(CC)CC)C(=O)N1CC(S(=O)(=O)c2ccc(N3CC(CN4CCC([C@@](CN5CCC5)(c5cccc(F)c5)[C@H]5CCC[C@@H]5NC(=O)OC)CC4)C3)cc2)C1 [Cpd. No. 21, methyl ((1S,2R)-2-((S)-2-(azetidin-1-yl)-1-(1-((1-(4-((1-(2-((diethylamino)methyl)acryloyl)azetidin-3-yl)sulfonyl)phenyl)azetidin-3-yl)methyl)piperidin-4-yl)-1-(3-fluorophenyl)ethyl)cyclopentyl)carbamate] | 2 nM | < 10 nM
11 | C=C(CN1CCC1)C(=O)N1CC(S(=O)(=O)c2ccc(N3CC(CN4CCC([C@@](CN5CCC5)(c5cccc(F)c5)[C@H]5CCC[C@@H]5NC(=O)OC)CC4)C3)cc2)C1 [Cpd. No. 22, methyl ((1S,2R)-2-((S)-2-(azetidin-1-yl)-1-(1-((1-(4-((1-(2-(azetidin-1-ylmethyl)acryloyl)azetidin-3-yl)sulfonyl)phenyl)azetidin-3-yl)methyl)piperidin-4-yl)-1-(3-fluorophenyl)ethyl)cyclopentyl)carbamate] | 2 nM | < 10 nM
12 | C=C(CN1CCOCC1)C(=O)N1CC(S(=O)(=O)c2ccc(N3CC(CN4CCC([C@](CN5CCC5)(c5cccc(F)c5)[C@H]5CCC[C@@H]5NC(=O)OC)CC4)C3)cc2)C1 [Cpd. No. 27, methyl ((1S,2R)-2-((R)-2-(azetidin-1-yl)-1-(3-fluorophenyl)-1-(1-((1-(4-((1-(2-(morpholinomethyl)acryloyl)azetidin-3-yl)sulfonyl)phenyl)azetidin-3-yl)methyl)piperidin-4-yl)ethyl)cyclopentyl)carbamate] | 4 nM | 
13 | C=C(CN1CCOCC1)C(=O)N1CC(S(=O)(=O)c2ccc(N3CC(CN4CCC([C@@](C#N)(c5cccc(F)c5)[C@H]5CCC[C@@H]5NC(=O)OC)CC4)C3)cc2)C1 [Cpd. No. 28, methyl ((1S,2R)-2-((S)-cyano(3-fluorophenyl)(1-((1-(4-((1-(2-(morpholinomethyl)acryloyl)azetidin-3-yl)sulfonyl)phenyl)azetidin-3-yl)methyl)piperidin-4-yl)methyl)cyclopentyl)carbamate] | 2 nM | 
14 | C=C(CN1CCCCC1)C(=O)N1CC(S(=O)(=O)c2ccc(N3CC(CN4CCC([C@@](C#N)(c5cccc(F)c5)[C@H]5CCC[C@@H]5NC(=O)OC)CC4)C3)cc2)C1 [Cpd. No. 29, methyl ((1S,2R)-2-((S)-cyano(3-fluorophenyl)(1-((1-(4-((1-(2-(piperidin-1-ylmethyl)acryloyl)azetidin-3-yl)sulfonyl)phenyl)azetidin-3-yl)methyl)piperidin-4-yl)methyl)cyclopentyl)carbamate] | 2 nM | 
15 | C=C(CN1CCOCC1)C(=O)N1CC(S(=O)(=O)c2cccc(N3CC(CN4CCC([C@@](CN5CCC5)(c5cccc(F)c5)[C@H]5CCC[C@@H]5NC(=O)OC)CC4)C3)c2)C1 [Cpd. No. 30, methyl ((1S,2R)-2-((S)-2-(azetidin-1-yl)-1-(3-fluorophenyl)-1-(1-((1-(3-((1-(2-(morpholinomethyl)acroyloyl)azetidin-3-yl)sulfonyl)phenyl)azetidin-3-yl)methyl)piperidin-4-yl)ethyl)cyclopentyl)carbamate] | 5 nM | 
16 | COC(=O)N[C@H]1CCC[C@@H]1[C@@](CN1CCC1)(c1cccc(F)c1)C1CCN(CC2CN(c3ccc(S(=O)(=O)C4CN(C(=O)/C=C/CN5CCOCC5)C4)cc3)C2)CC1 [Cpd. No. 31, methyl ((1S,2R)-2-((R)-2-(azetidin-1-yl)-1-(3-fluorophenyl)-1-(1-((1-(4-((1-((E)-4-morpholinobut-2-enoyl)azetidin-3-yl)sulfonyl)phenyl)azetidin-3-yl)methyl)piperidin-4-yl)ethyl)cyclopentyl)carbamate] | 88 nM | 
17 | C=CC(=O)Nc1cccc(S(=O)(=O)c2ccc(N3CC(CN4CCC([C@@](CN5CCC5)(c5cccc(F)c5)[C@H]5CCC[C@@H]5NC(=O)OC)CC4)C3)cc2)c1 [Cpd. No. 32, methyl ((1S,2R)-2-((S)-1-(1-((1-(4-((3-acrylamidophenyl)sulfonyl)phenyl)azetidin-3-yl)methyl)piperidin-4-yl)-2-(azetidin-1-yl)-1-(3-fluorophenyl)ethyl)cyclopentyl)carbamate] | 2 nM | 
18 | C=CC(=O)N1CC2CC1CN2S(=O)(=O)c1ccc(N2CC(CN3CCC([C@@](CN4CCC4)(c4cccc(F)c4)[C@H]4CCC[C@@H]4NC(=O)OC)CC3)(OC)C2)cc1 (stereo partly drawn) [compound 240] | 4 nM | 
